# According to patent US20250270180A1, “MEK INHIBITORS AND THERAPEUTIC USES THEREOF” (Immuneering Corporation, priority 2020, published 2025):
# Tests used:
# A549 pERK = test: A549-pERK, 2 h (quantitative Western, Jess); format: cell-based; details: Homo sapiens, A549, 2 h, phospho:total ratio normalized to DMSO control; for activity at 0.01 µM: 10 nM
# Experimental: (§1) A549 or […] cells were treated in duplicate for two hours with compounds at varying concentrations. After two hours, the cells were lysed, snap frozen, and stored at −80° C. After storage, the lysate was quantified with the Bradford assay. Before the lysates were prepared to run on the Jess, the lysates were diluted to 1 mg/mL for pERK analysis and 1.5 mg/mL pMEK analysis using quantitative Western blotting. ERK and MEK phosphorylation levels were estimated by taking the ratio of phospho-protein to total protein and normalizing to the DMSO control. The results of this study are described in Tables 14-16.
# [1] = test system: A549 CRAF BP (MEK phosphorylation); test: A549-CRAF BP 100 nM, 2 h (pMEK); format: cell-based; details: Homo sapiens, A549, 2 h, phospho:total ratio normalized to DMSO control
# Experimental: as §1
# Plasma stability, human = format: in vitro ADME; details: 2 μM
# [2] = Plasma stability, beagle dog; format: in vitro ADME; details: 2 μM
# [3] = Plasma stability, CD-1 mouse; format: in vitro ADME; details: 2 μM
# CYP450 2C19 = CYP450 2C19 (Homo sapiens, UniProt P33261); test: CYP450 panel, 2C19; details: 10 μM; substrate mephenytoin
# Chain of CYP450 2C19 (P33261 whole entry): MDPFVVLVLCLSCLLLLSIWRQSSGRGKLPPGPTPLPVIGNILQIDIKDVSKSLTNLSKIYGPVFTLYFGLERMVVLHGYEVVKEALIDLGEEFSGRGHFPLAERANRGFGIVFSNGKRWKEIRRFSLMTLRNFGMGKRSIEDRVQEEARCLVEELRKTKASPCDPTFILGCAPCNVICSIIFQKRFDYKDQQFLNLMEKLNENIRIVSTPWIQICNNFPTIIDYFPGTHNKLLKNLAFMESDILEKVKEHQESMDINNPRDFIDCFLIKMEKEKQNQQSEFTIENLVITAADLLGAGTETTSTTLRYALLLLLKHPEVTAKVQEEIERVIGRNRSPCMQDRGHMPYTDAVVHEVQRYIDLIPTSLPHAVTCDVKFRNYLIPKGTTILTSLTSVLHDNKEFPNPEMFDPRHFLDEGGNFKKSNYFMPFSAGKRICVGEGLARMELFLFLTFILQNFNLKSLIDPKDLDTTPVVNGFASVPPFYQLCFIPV
# [4] = Absorption & efflux: Caco-2 permeability; details: human
Compound,activity at 0.01 µM (A549 pERK),activity at 0.1 µM [1],other results
CNS(=O)(=O)Nc1cccc(Cc2c(CN3CCNCC3)c3cc(Cl)c(OC(=O)N(C)C)cc3oc2=O)c1F [Compound 21],20.4%,47.9%,
CNS(=O)(=O)Nc1cccc(Cc2c(CN(C)C)c3cc(Cl)c(OC(=O)N(C)C)cc3oc2=O)c1F [Compound 24],42.4%,55.9%,
CNS(=O)(=O)Nc1cccc(Cc2c(CN(C)C)c3cc(F)c(OC(=O)N(C)C)cc3oc2=O)c1F [Compound 25],66.2%,71%,
CNS(=O)(=O)Nc1cccc(Cc2c(CNCC#N)c3ccc(OC(=O)N(C)C)cc3oc2=O)c1F [Compound 33],55.4%,51.4%,
CCN(CC)Cc1c(Cc2cccc(NS(=O)(=O)NC)c2F)c(=O)oc2cc(OC(=O)N(C)C)ccc12 [Compound 73],77.7%,33.9%,
CNS(=O)(=O)Nc1cccc(Cc2c(CN3CC(OC)C3)c3ccc(OC(=O)N(C)C)cc3oc2=O)c1F [Compound 74],75.3%,59.2%,
CNS(=O)(=O)Nc1cccc(Cc2c(CNCC(F)(F)F)c3ccc(OC(=O)N(C)C)cc3oc2=O)c1F [Compound 75],,66.5%,
CNS(=O)(=O)Nc1cccc(Cc2c(CN(C)CC(C)C)c3ccc(OC(=O)N(C)C)cc3oc2=O)c1F [Compound 78],78.6%,64.2%,
CNS(=O)(=O)Nc1cccc(Cc2c(CN(C)c3ccccc3)c3ccc(OC(=O)N(C)C)cc3oc2=O)c1F [Compound 79],,45.2%,
CNS(=O)(=O)Nc1cccc(Cc2c(CN(C)Cc3ccccc3)c3ccc(OC(=O)N(C)C)cc3oc2=O)c1F [Compound 80],56.4%,56.1%,
CCCN(C)Cc1c(Cc2cccc(NS(=O)(=O)NC)c2F)c(=O)oc2cc(OC(=O)N(C)C)ccc12 [Compound 81],57.6%,78.3%,
CNS(=O)(=O)Nc1cccc(Cc2c(CN(C)C3CC3)c3ccc(OC(=O)N(C)C)cc3oc2=O)c1F [Compound 82],64.9%,72.3%,
CNS(=O)(=O)Nc1cccc(Cc2c(CN(C)CC3CC3)c3ccc(OC(=O)N(C)C)cc3oc2=O)c1F [Compound 84],83.2%,87.3%,
CNS(=O)(=O)Nc1cccc(Cc2c(CN(C)C3CCC3)c3ccc(OC(=O)N(C)C)cc3oc2=O)c1F [Compound 86],96.4%,53.2%,
CNS(=O)(=O)Nc1cccc(Cc2c(CN(C)CC#N)c3ccc(OC(=O)N(C)C)cc3oc2=O)c1F [Compound 87],63.8%,95.8%,
CNS(=O)(=O)Nc1cccc(Cc2c(CN(C)CC3CCC3)c3ccc(OC(=O)N(C)C)cc3oc2=O)c1F [Compound 88],142%,53.6%,
CNS(=O)(=O)Nc1cccc(Cc2c(CNc3ccsc3)c3ccc(OC(=O)N(C)C)cc3oc2=O)c1F [Compound 90],72.4%,71%,
CNS(=O)(=O)Nc1cccc(Cc2c(CNc3cncs3)c3ccc(OC(=O)N(C)C)cc3oc2=O)c1F [Compound 91],74.6%,84.2%,
CNS(=O)(=O)Nc1cccc(Cc2c(CN(C)c3ccc(Cl)cc3)c3ccc(OC(=O)N(C)C)cc3oc2=O)c1F [Compound 97],56.5%,52.1%,
CCS(=O)(=O)Nc1cccc(Cc2c(C)c3ccc(OC(=O)N(C)C)cc3oc2=O)c1F [Compound 107],18%,39.9%,
CNS(=O)(=O)Nc1cccc(Cc2c(C)c3cc(C)c(OC(=O)N(C)C)cc3oc2=O)c1F [Compound 108],5.78%,47.9%,
CNS(=O)(=O)Nc1cccc(Cc2c(C)c3cc(Cl)c(OC(=O)N(C)C)cc3oc2=O)c1F [Compound 109],4.51%,41.9%,
CNS(=O)(=O)Nc1nccc(Cc2c(C)c3cc(C)c(OC(=O)N(C)C)cc3oc2=O)c1F [Compound 110],5.92%,56.6%,
CNS(=O)(=O)Nc1nccc(Cc2c(C)c3cc(Cl)c(OC(=O)N(C)C)cc3oc2=O)c1F [Compound 111],4.63%,48.6%,

Compound,activity at 0.01 µM (A549 pERK),activity at 0.1 µM [1],other results
Cc1c(Cc2ccnc(NS(=O)(=O)C3CC3)c2F)c(=O)oc2cc(OC(=O)N(C)C)ccc12 [Compound 112],46.3%,52.9%,
Cc1c(Cc2cccc(NS(=O)(=O)C3CC3)c2F)c(=O)oc2cc(OC(=O)N(C)C)ccc12 [Compound 113],24.7%,48%,
Cc1c(Cc2ccnc(NS(=O)(=O)C(C)C)c2F)c(=O)oc2cc(OC(=O)N(C)C)ccc12 [Compound 114],36.6%,59.9%,
Cc1c(Cc2cccc(NS(=O)(=O)C(C)C)c2F)c(=O)oc2cc(OC(=O)N(C)C)ccc12 [Compound 115],13.5%,39.2%,
Cc1c(Cc2cccc(NS(=O)(=O)C3CCC3)c2F)c(=O)oc2cc(OC(=O)N(C)C)ccc12 [Compound 118],21.1%,39.1%,
CCS(=O)(=O)Nc1nccc(Cc2c(C)c3ccc(OC(=O)N(C)C)cc3oc2=O)c1F [Compound 119],64.8%,66.1%,
Cc1c(Cc2ccnc(NS(=O)(=O)C3CCC3)c2F)c(=O)oc2cc(OC(=O)N(C)C)ccc12 [Compound 125],54.4%,41.7%,
CNS(=O)(=O)Nc1cccc(Cc2c(CN(C)C)c3ccc(OC(=O)N4CCC4)cc3oc2=O)c1F [Compound 128],66.3%,37.7%,
CCS(=O)(=O)Nc1cccc(Cc2c(CN(C)C)c3cc(Cl)c(OC(=O)N(C)C)cc3oc2=O)c1F [Compound 132],62.6%,57.8%,
CNS(=O)(=O)Nc1nccc(Cc2c(CN(C)C)c3cc(F)c(OC(=O)N(C)C)cc3oc2=O)c1F [Compound 140],65%,70.3%,
CCS(=O)(=O)Nc1cccc(Cc2c(CN3CCNCC3)c3cc(Cl)c(OC(=O)N(C)C)cc3oc2=O)c1F [Compound 147],21.7%,46.4%,
CCS(=O)(=O)Nc1nccc(Cc2c(CN(C)C)c3ccc(OC(=O)N(C)C)cc3oc2=O)c1F [Compound 148],49.6%,56.5%,
CN(C)C(=O)Oc1ccc2c(CN3CCNCC3)c(Cc3ccnc(NS(=O)(=O)C4CC4)c3F)c(=O)oc2c1 [Compound 150],47.4%,90.2%,
CNS(=O)(=O)Nc1cccc(Cc2c(CN3CC4(CCC4)C3)c3ccc(OC(=O)N(C)C)cc3oc2=O)c1F [Compound 153],50.2%,54.1%,
C#CCNCCc1c(Cc2cccc(NS(=O)(=O)NC)c2F)c(=O)oc2cc(OC(=O)N(C)C)ccc12 [Compound 183],32.4%,65.9%,activity at 10 µM (A549 pERK): 0.82%
CNS(=O)(=O)Nc1cccc(Cc2c(CC(=O)N3CC(OC)C3)c3ccc(OC(=O)N(C)C)cc3oc2=O)c1F [Compound 216],89.5%,,activity at 10 µM (A549 pERK): 4.51%
CNS(=O)(=O)Nc1cccc(Cc2c(CNCC(=O)N(C)CC#N)c3ccc(OC(=O)N(C)C)cc3oc2=O)c1F [Compound 217],96.7%,,activity at 10 µM (A549 pERK): 11.2%
C#CCNC(=O)CNCc1c(Cc2cccc(NS(=O)(=O)NC)c2F)c(=O)oc2cc(OC(=O)N(C)C)ccc12 [Compound 218],113%,,activity at 10 µM (A549 pERK): 9.46%
CNS(=O)(=O)Nc1cccc(Cc2c(CNCC(=O)N(C)c3ccccc3)c3ccc(OC(=O)N(C)C)cc3oc2=O)c1F [Compound 220],109%,,activity at 10 µM (A549 pERK): 4.28%
CNS(=O)(=O)Nc1cccc(Cc2c(CNCC(=O)Nc3ccccc3)c3ccc(OC(=O)N(C)C)cc3oc2=O)c1F [Compound 223],119%,,activity at 10 µM (A549 pERK): 3.04%
CC[C@H](C)C(=O)O[C@H]1C[C@@H](C)C=C2C=C[C@H](C)[C@H](CC[C@@H]3C[C@@H](O)CC(=O)O3)[C@H]21 [Lovastatin],,,"Human (% Reamining @2 hour) (Plasma stability, human): 81.8%; Beagle Dog (% Reamining @2 hour) [2]: 94.1%; CD-1 Mouse (% Reamining @2 hour) [3]: 0.6%"
COc1ccc2[nH]c([S+]([O-])Cc3ncc(C)c(OC)c3C)nc2c1 (centres unmarked) [Omeprazole],,,2C19* (CYP450 2C19): 61.6
CC(C)[N+](C)(CCOC(=O)C1c2ccccc2Oc2ccccc21)C(C)C [Propantheline],,,"Human (% Reamining @2 hour) (Plasma stability, human): 5.7%; Beagle Dog (% Reamining @2 hour) [2]: 58.4%; CD-1 Mouse (% Reamining @2 hour) [3]: 27.1%"
CNC(=C[N+](=O)[O-])NCCSCc1ccc(CN(C)C)o1 [Ranitidine],,,"Papp A→B at 2 h, 10 μM [4]: < 1 ×10⁻⁶ cm/s"
